Assay results: patent US8920334B2, “Method of breath analysis for determining liver capacity or microcirculation using 13C-labeled methacetin substrate” (Freie Universitaet Berlin, priority 2005, dated 2014)

Key:
[1] = target: T1, enzyme CYP1A2 in the liver (Homo sapiens, UniProt P05177); assay: 13C-methacetin breath test (LiMAx) before and after partial liver resection; format: in vivo; settings: patients, mean
T1 construct: demethylated to paracetamol in a rapid one-step reaction by the enzyme CYP1A2 in the liver; from tissue; host or cells: liver of living patients (in vivo)
T1 sequence (P05177 1-516): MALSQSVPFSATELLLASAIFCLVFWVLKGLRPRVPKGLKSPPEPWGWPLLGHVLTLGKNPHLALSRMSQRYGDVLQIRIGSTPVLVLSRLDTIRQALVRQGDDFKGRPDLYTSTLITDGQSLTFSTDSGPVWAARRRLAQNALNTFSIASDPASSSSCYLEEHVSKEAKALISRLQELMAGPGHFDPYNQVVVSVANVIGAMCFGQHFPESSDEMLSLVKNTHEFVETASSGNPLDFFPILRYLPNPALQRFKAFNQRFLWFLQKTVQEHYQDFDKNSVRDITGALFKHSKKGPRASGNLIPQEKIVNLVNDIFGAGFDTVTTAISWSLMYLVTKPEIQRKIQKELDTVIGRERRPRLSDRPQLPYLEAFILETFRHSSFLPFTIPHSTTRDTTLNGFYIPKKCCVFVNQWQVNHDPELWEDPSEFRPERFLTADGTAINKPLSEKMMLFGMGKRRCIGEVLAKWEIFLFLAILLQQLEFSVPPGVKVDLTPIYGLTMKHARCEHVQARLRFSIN
Experimental: This object is achieved by an analysis method, for determining a functional parameter of an organ of a human or animal individual. According to this analysis method, the ^13CO2 content in the air exhaled by the individual is measured, the ^13CO2 in the body of the individual being formed enzymatically from a substrate that has been administered beforehand to the individual, and then being exhaled by the individual. The measurement of the ^13CO2 content in the air exhaled by the individual is carried out using a suitable measurement device. The maximum reaction rate of the substrate in the body of the individual is determined via a change of the measured ^13CO2 content in the air exhaled by the individual using zero-order enzyme kinetics. The analysis method according to the invention therefore proceeds from a consideration of enzyme kinetics.
In a particularly preferred embodiment of the invention, the maximum reaction rate (LiMAx) is calculated through the converted quantity of substrate per unit of time in μg/h/kg bodyweight at variable times at which the maximum value is reached, such that genuine quantification of the maximum functional liver capacity can be made. The calculation is carried out according to the following formula (1), which describes zero-order enzyme kinetics: […]
Here, δ^13C is the difference between the ^13CO2/^12CO2 ratio of the sample and the Pee Dee Belmite (PDB) standard in delta per mil, RPDB is the ^13CO2/^12CO2 ratio of the PDB standard (0.0112375), P is the CO2 production rate (300 mmol/h×surface area of body in m^2), M is the molecular weight of the substrate, and KG is the actual bodyweight of the individual in kg.
The inundation time is preferably used to assess the microcirculation in the liver, so as to be able to detect microcirculation disturbances. Assuming the quickest possible inundation by in particular intravenous bolus injection and substrate excess and the high first-pass effect of methacetin or another substrate, the hepatic microcirculation can be assessed particularly advantageously. The inundation time needed to reach the maximum reaction rate tvmax is determined, said inundation time lengthening in the presence of microcirculation disturbances, since in this case the substrate inundation is not uniformly or completely delayed in all areas of the liver. Liver perfusion can thus be assessed.
The rapid substrate inundation required for the enzyme-kinetic evaluation is ensured by the fact that ^13C methacetin is administered intravenously in a bolus. The intravenous bolus injection ensures an immediate and complete substrate inundation in the liver. The absorption of the test substance ^13C-methacetin is no longer the step that determines the reaction rate. With the preferred dose of 2 mg methacetin per kg bodyweight, a temporary enzyme utilization is also permitted in patients with a healthy liver by a short-term substrate excess. This permits the actual quantitative expressiveness, since zero-order enzyme kinetics are achieved, and only this permits a statement concerning the maximum functional capacity of an enzyme system.
In the context of a prospective study, a method, which is discussed in more detail below, was used to evaluate liver function before and after partial liver resection in a number of patients: • 1. […]

[2] = cited from earlier work

Row | Structure (SMILES) | inundation time (tvmax) until maximum reaction rate ([1]; after partial liver resection) | inundation time (tvmax) until maximum reaction rate ([1]; before partial liver resection) | maximum functional liver capacity (LiMAx) ([1]; post-operative day 1 (POD1) after partial liver resection) | maximum functional liver capacity (LiMAx) ([1]; post-operative day 10 (POD10) after partial liver resection) | maximum functional liver capacity (LiMAx) ([1]; pre-operative (before partial liver resection), intravenous 13C-methacetin solution) | solubility ([2]; in water or in an aqueous buffer) | stability of aqueous solution (crystallization) ([2]; usually aqueous solution)
1 | COc1ccc(NC(C)=O)cc1 [^13C-methacetin] | 53.5 ± 7.51 min | 11.9 ± 2.17 min | 141 ± 13 µg/h/kg | 249 ± 17 µg/h/kg | 301 ± 24 µg/h/kg | – | –
2 | COc1ccc(NC(C)=O)cc1 [methacetin] | – | – | – | – | – | extremely sparingly soluble | crystallizes out of a usually aqueous solution within a period of hours to days
